This is an account of results in patent US20250186431A1, “PHARMACEUTICAL COMPOSITION FOR RADIOTHERAPY, AND METHOD FOR TREATING SOLID CANCER USING SAME” (Kyoto University, priority 2022, published 2025).

Structures can show the parent of a compound that is named as a salt. Some results are limits rather than exact numbers.

Series [1] concerns OVCAR8 tumor spheroid. As to the kind of experiment: Destruction of spheroid by monochromatic X-ray irradiation. As to conditions: 30 minutes, then 3 days incubation. In kind it is cell-based, Human. As for the experimental part:
Irradiation of monochromatic X-rays was performed in beamline BL14B1 of large-scale synchrotron radiation facility SPring-8 located in Sayo-cho, Sayo-gun, Hyogo Prefecture, Japan. […] First, white X-ray generated from the bending magnet of SPring-8 was guided to an exit-position fixed two-crystal monochromator having silicon 311 crystal to generate a monoenergetic X-ray beam (monochromatic X-ray). SPring-8 storage ring was operated in the top-up mode under which fluctuation of X-ray intensity over time can be ignored due to a constant storage current of 100 mA to perform an irradiation experiment. The shape of the X-ray beam was controlled by using horizontal and vertical transport channel (TC) slits. The size of the X-ray beam at the position of a sample was 0.7 mm in height×1.4 mm in width. This is large enough to cover a spheroid having a size of 0.5 mm×0.5 mm. During experiments, the intensity of the X-ray beam was monitored in two ion chambers arranged on the optical axis. The X-ray transmitted was monitored by a CCD camera to control the position of the sample. […] Spheroids are placed at the bottom of tubes put in a sample rack.
The iodine atom-containing Hoechst compound (I-Hoechst) and spheroids were incubated (24 hours) in the same manner as in Test Example 3 to obtain spheroids having the Hoechst compound taken up. The spheroids were put in tubes and the tubes were plated at the sample rack of the X-ray irradiation device. Since the sample rack is designed such that samples can be moved on the XYZ stage, the experimenter can perform X-ray irradiation by moving samples on the optical axis without entering the experimental hutch. After completion of X-ray irradiation to a sample, the sample rack is designed to automatically move such that the irradiation position faces the next sample. Thus, a series of X-ray irradiation can be automatically performed (see, FIG. 6). Before irradiation, the position of a sample was confirmed by an optical microscope and a laser, and monitored by a CCD camera during X-ray irradiation. Note that, since the energy of X-ray is extremely high, observation of spheroids and an absorption control of a tube by the CCD camera was not made. A refractive X-ray image of a tube was obtained to monitor of a sample position. The photon flux at a position of a sample was calculated as 3.9×10^8 (photons/second) by use of the SPECTRA code.
The spheroids prepared as mentioned above were irradiated with a monochromatic X-ray (energy: 33.0 key, 33.2 keV or 33.4 keV) for 30 minutes. After X-ray radiation, spheroids were incubated in a CO2 incubator at 37° C. for 3 days and thereafter, observed by a confocal microscope (visible light and fluorescent light). […]

The subject of series [2] is DNA double strand in OVCAR8 tumor spheroid. As to the kind of experiment: γH2AX assay of spheroids immediately after monochromatic X-ray irradiation. In kind it is cell-based, Human. As for the experimental part: For investigating the mechanism of how to destroy spheroids, spheroids were irradiated with a monochromatic X-ray for 30 minutes. Immediately after irradiation and before incubation, spheroids were subjected to γH2AX assay to confirm the state of a DNA double strand. In the γH2AX assay, if a double strand is cleaved, red fluorescence is emitted. The γH2AX assay was performed by use of a commercially available kit in accordance with the instructions attached thereto.

Series [3] concerns OVCAR8 tumor spheroid (hypoxic or normoxic). The experiment in a line: Destruction of hypoxic spheroid by monochromatic X-ray irradiation. Particulars: then monochromatic X-ray. In kind it is cell-based, Human. As for the experimental part: The iodine atom-containing Hoechst compound (I-Hoechst) and spheroids were incubated (24 hours) in the same manner as in Test Example 3 to obtain spheroids having the Hoechst compound taken up therein. The spheroids were put in tubes and further incubated in a hypoxic (0% oxygen concentration) condition for further 18 hours. As a control, spheroids were incubated in a normal (not hypoxic) oxygen condition (20% oxygen concentration) in the same manner for 18 hours. After incubation in a hypoxic (or normoxic) condition, the spheroids were irradiated with monochromatic X-rays in the same manner as in Test Example 5. In the Test, whether spheroids are placed in a hypoxic condition was checked by inducing expression of a hypoxic marker, HIF-1α. Note that, HIF-1α is a kind of a hypoxia inducible factor and measurable by a commercially available kit.
Furthermore, spheroids (nanoparticles carrying an iodine atom-containing Hoechst compound-spheroid) prepared in Test Example 8 are irradiated with monochromatic X-rays under a hypoxic condition in the same manner as in Test Example 7. It is confirmed that hypoxic spheroids irradiated with the X-rays are destroyed.

Series [4] deals with Human ovarian cancer cell OVCAR8 expressing GFP. As to the kind of experiment: Uptake by cancer cell, confocal microscopy. In kind it is cell-based. As to conditions: 50 nmol/mL, 24 hours, 37° C. As for the experimental part: Human ovarian cancer cell OVCAR8 expressing green fluorescent protein (GFP) was used as a cancer cell. Cancer cell OVCAR8 was cultured on RPMI1640 medium containing 10% inactivated FBS and 1% penicillin/streptomycin in a culture dish having a diameter of 100 mm. Furthermore, the iodine atom-containing Hoechst compound (I-Hoechst-3HCl) (0.1 mg, 151.57 nmol) was dissolved in water (0.15 mL) to prepare a solution (the amount of Hoechst compound: 1 μmol/mL) containing the iodine atom-containing Hoechst compound. The solution was added to the culture solution such that the amount of the Hoechst compound in the culture solution became 50 nmol/mL and incubated in a CO2 incubator at 37° C. for 24 hours. Thereafter, the culture medium was removed and the cells were washed. The cells were observed by a confocal microscope. Cell nuclei can be detected based on staining with a Hoechst compound (blue color emission) and expression of GFP (green fluorescence). […]
Nanoparticles (IH-BPMO) carrying an iodine atom-containing Hoechst (I-Hoechst) were added to a medium containing cancer cells and culture was performed for 24 hours in accordance with Test Example 8. Fluorescence was observed by a microscope.

For series [5], the system named is OVCAR8 tumor spheroid. The experiment in a line: Uptake into tumor spheroid, confocal microscopy. Type of series: cell-based, Human. As to conditions: 5 nmol/mL. As for the experimental part:
Human ovarian cancer cell OVCAR8 expressing green fluorescent protein (GFP) was used as a cancer cell. A tumor spheroid (hereinafter also referred to as “spheroid”) was formed from the cancer cell. Cancer cell OVCAR8 was cultured on RPMI1640 medium containing 10% inactivated FBS and 1% penicillin/streptomycin in a culture dish of 100 mm in diameter. For forming spheroids, […] of OVCAR8 cells were seeded in PrimeSurface96U culture plate (MS-9096U, Sumitomo Bakelite Co., Ltd). The OVCAR8 cells were cultured in a CO2 incubator at 37° C. for 7 days. Since the cells were not able to attach to a hydrophilic plate surface, the cells came together at the bottom of a well and formed three-dimensional spheroids at the bottom. In this manner, spheroids (estimated number of cells: approximately 100,000) of 500 μm in diameter were obtained.
Subsequently, an iodine atom-containing Hoechst compound (I-Hoechst-3HCl) (0.1 mg, 151.57 nmol) was dissolved in water (1.5 mL) to prepare a solution containing the iodine atom-containing Hoechst compound (amount of the Hoechst compound: 100 nmol/mL). […]
For the horizontal row, images in the column indicated by “GFP” are the observation results based on a fluorescence (green), whereas images in the column indicated by “I-Hoechst” are observation results based on staining (blue) with the Hoechst compound. […]

Series [6] has as its system ovarian cancer OVCAR8 cells. The experiment in a line: Cytotoxicity test by LDH (lactate dehydrogenase) method. In kind it is cell-based, Human. As for the experimental part: A Hoechst compound (normal compound containing no iodine atom) is generally considered to have low toxicity. The following experiment was carried out to confirm that iodine atom-containing Hoechst compounds have low toxicity. Iodine atom-containing Hoechst compounds (I-Hoechst, 3HCl) different in addition amount were each incubated with ovarian cancer OVCAR8 cells. Cytotoxicity was investigated by a commercially available kit in accordance with LDH (lactate dehydrogenase) method.
Furthermore, the safety of the nanoparticles carrying an iodine atom-containing Hoechst compound is confirmed in the same manner as in Test Example 6.

For `CN1CCN(c2ccc3nc(-c4ccc5nc(-c6ccc(O)cc6)[nH]c5c4)[nH]c3c2)CC1` [Hoechst 33258, reference compound], the Spheroid destruction entry in the series on OVCAR8 tumor spheroid [1] (any of the monochromatic X-rays (33.0, 33.2 or 33.4 keV)) was “spheroids were not destroyed”.
Turning to `CN1CCN(c2ccc3nc(-c4ccc5nc(-c6ccc(O)c(I)c6)[nH]c5c4)[nH]c3c2)CC1` [Hoechst 33342 analog 2], the “DNA double strand break (γH2AX red fluorescence)” value in series [2] (33.0 keV, 30 minutes, immediately after irradiation) is on record as “no DNA double strands were broken”; in series [2] (33.2 keV, 30 minutes, immediately after irradiation), “a DNA double strand was broken”; in series [2] (33.4 keV, 30 minutes, immediately after irradiation) it was “a DNA double strand was broken although the degree of double strand break is lower than the 33.2-keV monochromatic X-ray”; in series [2] (no irradiation with monochromatic X-ray), “no DNA double strands were broken”. For the same molecule, the “Spheroid destruction in hypoxic condition” value in series [3] (0% oxygen 18 hours) was “effectively destroyed”. Besides, the “Spheroid destruction in normoxia condition” value in series [3] (20% oxygen 18 hours) is on record as “effectively destroyed”. Besides, the values for the Spheroid destruction result with OVCAR8 tumor spheroid [1] (monochromatic X-ray 33.0 keV), in the series on OVCAR8 tumor spheroid [1] (monochromatic X-ray 33.2 keV) and in the series with OVCAR8 tumor spheroid [1] (monochromatic X-ray 33.4 keV) were “spheroids were not destroyed”, “destroyed into pieces” and “spheroids were destroyed even though the degree of destruction was lower than the 33.2-keV monochromatic X-ray”, respectively.
With `CN1CCN(c2ccc3nc(-c4ccc5nc(-c6ccc(O)c(I)c6)[nH]c5c4)[nH]c3c2)CC1` [I-Hoechst-3HCl, Hoechst 33342 analog 2 trihydrochloride], the “Uptake and localization in cancer cell” value in series [4] is “taken up within the cell, transported to the nucleus of the cell and localized in DNA”. Also, the “Permeation into interior of spheroid” value in the series with OVCAR8 tumor spheroid [5] (confocal microscope) is “reaches not only cells close to the surface of a spheroid but also cells located at the center of the spheroid”. In addition, in the series on OVCAR8 tumor spheroid [5] (incubation 1, 24, 96 hours), the “Uptake and distribution in spheroids” value is “efficiently taken up by spheroids and uniformly distributed over the entire spheroids 24 hours later”. Moreover, in series [6], the “Concentration at which no toxicity was shown (LDH method)” value is not above 20 µM.
